PubChem BioAssay AID330 (DTP/NCI, 2004)
Where “and” joins values, the source holds several entries; their conditions need not be identical. Equal values may be shown once. Toxic doses and inconclusive results are not listed. How the source made its calls: active means survival T/C of 150% or more; inactive means T/C below 125% in these data.

Test system: P388 leukemia ip, CD2F1 mice, survival T/C
Assay: NCI In Vivo Anticancer Drug Screen. Data for tumor model P388 Leukemia (intraperitoneal) in CD2F1 (CDF1) mice
Settings: endpoint: median survival time, higher = longer survival
Outline: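 Mice carrying the transplanted tumor received test compound or vehicle. Survival was recorded in each group, and the value is the treated-group measurement divided by that of the vehicle-treated control group.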

[1] = dose: 60.0 mg/kg/injection, schedule: Q01DX005 (ip), vehicle: saline with Tween-80
[2] = dose: 120.0 mg/kg/injection, schedule: Q01DX005 (ip), vehicle: saline with Tween-80
[3] = dose: 60.0 mg/kg/injection, schedule: Q01DX005 (ip), vehicle: Klucel (hydroxypropylcellulose) (HPC)
[4] = dose: 120.0 mg/kg/injection, schedule: Q01DX005 (ip), vehicle: Klucel (hydroxypropylcellulose) (HPC)
[5] = dose: 240.0 mg/kg/injection, schedule: Q01DX005 (ip), vehicle: Klucel (hydroxypropylcellulose) (HPC)
[6] = dose: 50.0 mg/kg/injection, schedule: Q01DX005 (ip), vehicle: saline with Tween-80
[7] = dose: 100.0 mg/kg/injection, schedule: Q01DX005 (ip), vehicle: saline with Tween-80

Measured: T/C

Fc1ccc2nc3ccccc3c(SCCNCCSc3c4ccccc4nc4ccc(F)cc34)c2c1
inactive: [1] 97 % of control | [2] 89 % of control

Cc1cc(Cl)nc2c1ccn2C1OCC(O)C(O)C1O (stereo not given)
inactive: dose: 16.0 mg/kg/injection, schedule: Q01DX001 (ip), vehicle: saline with Tween-80 102 % of control and 107 % of control | dose: 32.0 mg/kg/injection, schedule: Q01DX001 (ip), vehicle: saline with Tween-80 98 % of control and 107 % of control | dose: 64.0 mg/kg/injection, schedule: Q01DX001 (ip), vehicle: saline with Tween-80 107 % of control

CNS(=O)(=O)c1c([O-])on[n+]1-c1ccccc1
inactive: [3] 99 % of control | [4] 104 % of control | [5] 86 % of control

Cc1cccc(NCc2ccccn2)n1
inactive: [6] 103 % of control | [7] 103 % of control

O=C(O)c1ccccc1-c1ccccc1[N+](=O)[O-]
inactive: dose: 50.0 mg/kg/injection, schedule: Q01DX009 (ip), vehicle: saline 88 % of control | dose: 100.0 mg/kg/injection, schedule: Q01DX009 (ip), vehicle: saline 97 % of control | dose: 200.0 mg/kg/injection, schedule: Q01DX009 (ip), vehicle: saline 97 % of control

CCOc1c(N=Nc2cccc(Cl)c2)c(C)nn1C(=S)S
inactive: dose: 15.0 mg/kg/injection, schedule: Q01DX005 (ip), vehicle: Klucel + Tween-80 94 % of control | dose: 30.0 mg/kg/injection, schedule: Q01DX005 (ip), vehicle: Klucel + Tween-80 90 % of control

CCOC(=O)C(NC(=O)c1ccccc1)(C(=O)OCC)c1ccccn1
inactive: dose: 60.0 mg/kg/injection, schedule: Q01DX005 (ip), vehicle: saline 99 % of control | dose: 120.0 mg/kg/injection, schedule: Q01DX005 (ip), vehicle: saline 99 % of control | dose: 240.0 mg/kg/injection, schedule: Q01DX005 (ip), vehicle: saline 105 % of control

CSCCOCc1cc(C)no1
inactive: [1] 100 % of control | [2] 100 % of control | dose: 240.0 mg/kg/injection, schedule: Q01DX005 (ip), vehicle: saline with Tween-80 100 % of control

CC(=O)c1c(O)c(C)cc2c1CCc1ccc(O)c(C)c1-2
inactive: dose: 2.0 mg/kg/injection, schedule: Q01DX009 (ip), vehicle: Klucel (hydroxypropylcellulose) (HPC) 116 % of control | dose: 4.0 mg/kg/injection, schedule: Q01DX009 (ip), vehicle: Klucel (hydroxypropylcellulose) (HPC) 100 % of control | dose: 8.0 mg/kg/injection, schedule: Q01DX009 (ip), vehicle: Klucel (hydroxypropylcellulose) (HPC) 107 % of control | dose: 16.0 mg/kg/injection, schedule: Q01DX009 (ip), vehicle: Klucel (hydroxypropylcellulose) (HPC) 108 % of control

Cc1cccc2c(=O)n3c(cc12)-c1[nH]c2ccccc2c1CC3
inactive: [3] 103 % of control | [4] 97 % of control | [5] 96 % of control

S=c1oc(-c2ccc3c(c2)OCO3)nn1CN1CCN(Cn2nc(-c3ccc4c(c3)OCO4)oc2=S)CC1
inactive: dose: 50.0 mg/kg/injection, schedule: Q01DX005 (ip), vehicle: Klucel (hydroxypropylcellulose) (HPC) 96 % of control | dose: 100.0 mg/kg/injection, schedule: Q01DX005 (ip), vehicle: Klucel (hydroxypropylcellulose) (HPC) 96 % of control | dose: 200.0 mg/kg/injection, schedule: Q01DX005 (ip), vehicle: Klucel (hydroxypropylcellulose) (HPC) 93 % of control

CC(=O)OC1OC(CS[As](C2CCCCC2)C2CCCCC2)C(OC(C)=O)C(OC(C)=O)C1OC(C)=O (stereo not given)
inactive: dose: 12.5 mg/kg/injection, schedule: Q01DX009 (ip), vehicle: Klucel (hydroxypropylcellulose) (HPC) 104 % of control and 111 % of control | dose: 25.0 mg/kg/injection, schedule: Q01DX009 (ip), vehicle: Klucel (hydroxypropylcellulose) (HPC) 104 % of control and 120 % of control | dose: 50.0 mg/kg/injection, schedule: Q01DX009 (ip), vehicle: Klucel (hydroxypropylcellulose) (HPC) 98 % of control and 101 % of control

CN1CCCN(C(c2ccccc2)c2ccc(Cl)cc2)CC1 (stereo not given)
inactive: dose: 6.25 mg/kg/injection, schedule: Q01DX009 (ip), vehicle: saline with Tween-80 107 % of control | dose: 12.5 mg/kg/injection, schedule: Q01DX009 (ip), vehicle: saline with Tween-80 114 % of control and 115 % of control | dose: 25.0 mg/kg/injection, schedule: Q01DX009 (ip), vehicle: saline with Tween-80 107 % of control and 114 % of control | dose: 50.0 mg/kg/injection, schedule: Q01DX009 (ip), vehicle: saline with Tween-80 120 % of control

CCCCS(=O)(=O)CSC#N
inactive: dose: 3.12 mg/kg/injection, schedule: Q01DX005 (ip), vehicle: saline with Tween-80 102 % of control | dose: 6.25 mg/kg/injection, schedule: Q01DX005 (ip), vehicle: saline with Tween-80 105 % of control | dose: 12.5 mg/kg/injection, schedule: Q01DX005 (ip), vehicle: saline with Tween-80 117 % of control

COc1cccc(C(O)c2ccncc2C)c1OC (stereo not given)
inactive: dose: 12.5 mg/kg/injection, schedule: Q01DX009 (ip), vehicle: water 100 % of control | dose: 25.0 mg/kg/injection, schedule: Q01DX009 (ip), vehicle: water 99 % of control | dose: 50.0 mg/kg/injection, schedule: Q01DX009 (ip), vehicle: water 100 % of control | dose: 100.0 mg/kg/injection, schedule: Q01DX009 (ip), vehicle: water 99 % of control | dose: 200.0 mg/kg/injection, schedule: Q01DX009 (ip), vehicle: water 99 % of control

CCOc1ccccc1N=Nc1c(C)nn(C(=S)S)c1OCC
inactive: dose: 60.0 mg/kg/injection, schedule: Q01DX005 (ip), vehicle: Klucel + Tween-80 97 % of control | dose: 120.0 mg/kg/injection, schedule: Q01DX005 (ip), vehicle: Klucel + Tween-80 95 % of control | dose: 240.0 mg/kg/injection, schedule: Q01DX005 (ip), vehicle: Klucel + Tween-80 100 % of control

Cc1cc(C)n2ncc(Br)c2n1
inactive: [6] 100 % of control | [7] 100 % of control | dose: 200.0 mg/kg/injection, schedule: Q01DX005 (ip), vehicle: saline with Tween-80 94 % of control

C=C1C(=O)O[C@H]2CC3=CCC[C@H](C)[C@@]3(C)C[C@@H]12
inactive: dose: 2.25 mg/kg/injection, schedule: Q01DX005 (ip), vehicle: Klucel (hydroxypropylcellulose) (HPC) 100 % of control | dose: 4.5 mg/kg/injection, schedule: Q01DX005 (ip), vehicle: Klucel (hydroxypropylcellulose) (HPC) 96 % of control | dose: 9.0 mg/kg/injection, schedule: Q01DX005 (ip), vehicle: Klucel (hydroxypropylcellulose) (HPC) 99 % of control | dose: 18.0 mg/kg/injection, schedule: Q01DX005 (ip), vehicle: Klucel (hydroxypropylcellulose) (HPC) 101 % of control | dose: 36.0 mg/kg/injection, schedule: Q01DX005 (ip), vehicle: Klucel (hydroxypropylcellulose) (HPC) 99 % of control

c1ccc2c3c(ccc2c1)-c1ccc2ccccc2c1OP1(=NP(N2CC2)(N2CC2)=NP(N2CC2)(N2CC2)=N1)O3
inactive: dose: 100.0 mg/kg/injection, schedule: Q04DX002 (ip), vehicle: Klucel (hydroxypropylcellulose) (HPC) 100 % of control | dose: 200.0 mg/kg/injection, schedule: Q04DX002 (ip), vehicle: Klucel (hydroxypropylcellulose) (HPC) 99 % of control | dose: 400.0 mg/kg/injection, schedule: Q04DX002 (ip), vehicle: Klucel (hydroxypropylcellulose) (HPC) 103 % of control
